We go through three compounds from publication PMC6402034 (Biochemical Journal, 2019).

SMILES strings stand for the structures.

For experiment [1], the target named is T1, ALA2 (aminophospholipid ATPase 2) (Arabidopsis thaliana, UniProt P98205).
T1 sequence (P98205 1-1107): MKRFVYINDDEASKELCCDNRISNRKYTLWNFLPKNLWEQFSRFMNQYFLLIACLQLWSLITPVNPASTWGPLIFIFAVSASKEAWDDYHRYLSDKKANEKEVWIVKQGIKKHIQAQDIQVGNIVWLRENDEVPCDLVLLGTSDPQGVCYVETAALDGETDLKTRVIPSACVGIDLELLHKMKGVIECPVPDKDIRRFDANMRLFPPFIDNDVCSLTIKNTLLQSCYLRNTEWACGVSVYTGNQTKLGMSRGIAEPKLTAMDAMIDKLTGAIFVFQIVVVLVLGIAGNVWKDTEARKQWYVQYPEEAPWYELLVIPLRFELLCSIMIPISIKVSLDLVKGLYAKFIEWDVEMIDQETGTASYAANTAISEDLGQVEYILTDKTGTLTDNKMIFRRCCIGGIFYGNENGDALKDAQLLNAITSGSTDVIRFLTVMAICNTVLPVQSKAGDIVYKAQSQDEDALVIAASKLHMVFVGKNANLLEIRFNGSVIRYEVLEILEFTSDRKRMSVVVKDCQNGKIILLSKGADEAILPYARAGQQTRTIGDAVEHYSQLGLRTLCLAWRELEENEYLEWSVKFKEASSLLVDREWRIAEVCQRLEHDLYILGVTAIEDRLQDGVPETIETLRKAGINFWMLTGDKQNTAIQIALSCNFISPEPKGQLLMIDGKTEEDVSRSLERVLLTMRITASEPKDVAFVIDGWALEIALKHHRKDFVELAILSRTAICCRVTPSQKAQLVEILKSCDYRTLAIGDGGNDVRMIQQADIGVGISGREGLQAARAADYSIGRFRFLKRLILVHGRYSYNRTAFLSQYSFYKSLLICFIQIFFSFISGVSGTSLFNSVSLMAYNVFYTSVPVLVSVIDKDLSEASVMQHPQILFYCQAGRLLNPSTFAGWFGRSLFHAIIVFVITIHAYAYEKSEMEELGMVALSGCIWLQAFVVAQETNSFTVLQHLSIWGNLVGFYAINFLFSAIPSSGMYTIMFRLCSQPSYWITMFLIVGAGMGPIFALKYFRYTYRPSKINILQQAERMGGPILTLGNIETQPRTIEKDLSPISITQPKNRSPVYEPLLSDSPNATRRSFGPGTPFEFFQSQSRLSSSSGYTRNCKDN
T1 sequence (Q8L8W0 2-350 partner): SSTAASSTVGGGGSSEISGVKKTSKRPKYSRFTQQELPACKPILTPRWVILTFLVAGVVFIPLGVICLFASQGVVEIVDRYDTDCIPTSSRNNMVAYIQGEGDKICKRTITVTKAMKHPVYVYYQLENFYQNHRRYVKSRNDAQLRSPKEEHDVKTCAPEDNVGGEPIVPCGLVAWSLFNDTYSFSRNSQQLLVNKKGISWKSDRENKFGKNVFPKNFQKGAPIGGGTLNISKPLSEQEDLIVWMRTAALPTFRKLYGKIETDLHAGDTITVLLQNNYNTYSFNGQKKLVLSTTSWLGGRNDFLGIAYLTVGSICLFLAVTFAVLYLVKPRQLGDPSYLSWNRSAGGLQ
Description: lipid-stimulated ATPase activity of purified complex. Type of experiment: biochemical.

For experiment [2], the target named is T1, ALA2 (aminophospholipid ATPase 2). Described as above. In kind it is biochemical. This is another data set of the same source.
Experiment [3] shares this target.

The term EC50 denotes the concentration giving half of the maximal effect. In experiment [1], `CCCCCCCCCCCCCCCC(=O)OC[C@@H](O)COP(=O)(O)OC[C@H](N)C(=O)O` [Lyso-PS, 1-hexadecanoyl-sn-glycero-3-phospho-L-serine] returned an EC50 of 34 ± 7 µM. Turning to `CCCCCCCC/C=C\CCCCCCCC(=O)O[C@H](COC(=O)CCCCCCCCCCCCCCC)COP(=O)(O)OC[C@@H](N)C(=O)O` [P-D-S, 1-palmitoyl-2-oleoyl-sn-glycero-3-phospho-D-serine], the “lipid-stimulated ATPase activity of purified complex” value in experiment [2] is “The stereoisomer phosphatidyl-D-serine (P-D-S) was less than half as effective at stimulating ATPase activity compared with PS”.

Broadly, the IC50 is the concentration at which inhibition is half-maximal. Lower therefore signals greater potency. `[O]=[V]([OH])([OH])[OH]` [orthovanadate]: the IC50 in experiment [3] was about 22 µM.
